Drawing on PubChem BioAssay (NCI), this text covers TGI for 17 compounds.

Common to all, as to assay: NCI tumour cell line growth inhibition, 48 h
Test [1] concerns ACHN renal.
For test [2], the system named is COLO 205 colon.
The subject of test [3] is HL-60(TB) leukemia.
The test system of test [4] is HT29 colon.
Test [5] concerns MALME-3M melanoma.
Test [6] has as its system NCI-H23 lung.
The subject of test [7] is NCI-H460 lung.
Test [8] relates to OVCAR-4 ovarian.
Test [9] relates to SNB-75 CNS.
The subject of test [10] is UACC-257 melanoma.

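Compound exposure: 48 hours, 5 concentrations, 96-well plates. TGI: total growth inhibition.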 Some results are limits rather than exact numbers.

Regarding `NC(=O)CN1C=CCC(C(N)=O)=C1`, the TGI in test [1], in test [2], in test [3], in test [4], in test [5] and in test [6] was more than 100 µM throughout. Besides, the TGI in [7], in test [8], in test [9] and in test [10] was more than 100 µM in each case.
Take `CCN(CC)C(=O)CCN1CC1`: the TGI in test [1], in test [2], in [3], in test [4], in test [5] and in test [6] was more than 10 µM in each case. For the same compound, the TGI in test [7], in test [8], in test [9] and in test [10] was more than 10 µM throughout.
Take `CC(CNC(N)=O)NC(N)=O` (stereo not given): the TGI in [1], in test [2], in test [3], in test [4], in test [5] and in [6] was more than 100 µM each time. In addition, the TGI in test [7], in test [8], in test [9] and in [10] was more than 100 µM throughout.
As for `CC(=O)OC[C@H]1On2nnnc2[C@H](OC(C)=O)[C@@H](OC(C)=O)[C@@H]1OC(C)=O`, the TGI in test [1], in [2], in [3], in test [4], in test [5] and in test [6] was more than 100 µM throughout. The TGI in [7], in test [8], in test [9] and in test [10] was more than 100 µM each time.
In the case of `CCOC(=O)C1=C(O)c2ccc(C)cc2C(=O)C1=O`, the TGI in [1] is more than 100 µM; in test [2], more than 100 µM; in [3] it was more than 100 µM; in test [4] it was more than 100 µM; in [5], more than 100 µM; in [6], 98.8 µM. The TGI in [7], in [8], in test [9] and in test [10] was more than 100 µM in each case.
In the case of `NCCSCCC(=O)O`, the TGI in test [1] was more than 56.1 µM; in test [2], more than 74.3 µM; in test [3], more than 100 µM; in test [4], more than 100 µM; in test [5], more than 100 µM; in test [6] it was more than 62.7 µM. The TGI in test [7] is more than 37.9 µM; in test [8], more than 100 µM; in [9], more than 92.6 µM; in test [10], more than 100 µM.
For the compound `CC1(C)O[C@@H](C[C@]2(C#N)C[C@H](CCl)OC(C)(C)O2)C[C@@H](C#N)O1`, the TGI in [1], in test [2], in test [3], in [4], in [5] and in [6] was more than 100 µM in each case. Further, the TGI in [7], in test [8], in [9] and in test [10] was more than 100 µM throughout.
Regarding `[N-]=[N+]=NCC(O)Cn1cnc2c(NC(=O)c3ccccc3)ncnc21` (stereo not given), the TGI in [1] is more than 100 µM; in test [2], 76.9 µM; in test [3] it was more than 100 µM; in test [4], more than 100 µM; in test [5] it was more than 100 µM; in test [6], more than 100 µM. Also, the TGI in test [7], in test [8], in test [9] and in test [10] was more than 100 µM each time.
Turning to `COC(=O)Nc1nc2ccc(NC(=O)c3ccc(I)cc3)cc2[nH]1`, the TGI in [1], in [2], in test [3], in [4], in [5] and in [6] was more than 100 µM each time. The TGI in test [7], in test [8], in test [9] and in test [10] was more than 100 µM throughout.
For the compound `O=c1[nH]nc(Cc2ccc(Cl)cc2)n1/N=C/c1ccc([N+](=O)[O-])o1`, the TGI in [1] is 11.4 µM; in test [2] it was more than 20.1 µM; in test [3] it was more than 26.1 µM; in [4] it was more than 41.1 µM; in [5], 3.31 µM; in test [6] it was 16.8 µM. Besides, the TGI in test [7] is more than 36.2 µM; in [8], 15.9 µM; in test [9] it was 31.1 µM; in test [10], 9.3 µM.
On to `COc1ccc(Oc2ccccc2N)cc1`, for which the TGI in test [1] is more than 100 µM; in [2], 35.4 µM; in test [3], more than 100 µM; in test [4], more than 100 µM; in test [5] it was more than 100 µM; in test [6], more than 100 µM. Moreover, the TGI in test [7], in [8], in [9] and in test [10] was more than 100 µM each time.
For `CSc1cnc2ccccc2c1Sc1c[nH]c2ccccc2c1=O`, the TGI stood at 52.5 µM in [1]; 22.7 µM in [2]; 18 µM in test [3]; 15.1 µM in [4]; 37.6 µM in test [5]; 36.7 µM in [6]. Also, the TGI worked out at 22.8 µM in test [7], 33 µM in test [8], 10.3 µM in test [9] and 48 µM in test [10].
Consider `NC(N)=NC1C(O)C(O)C(O)C(N=C(N)N)C1O` (stereo not given), for which the TGI in test [1], in test [2], in test [3], in test [4], in [5] and in [6] was more than 100 µM throughout. The TGI in [7], in test [8], in test [9] and in [10] was more than 100 µM each time.
As to `CC(C)(C)C1=C(Br)C(O)(C(C)(C)C)OP1(=O)c1ccccc1` (stereo not given), the TGI in test [1], in test [2], in [3], in test [4], in test [5] and in test [6] was more than 100 µM throughout. For the same compound, the TGI in test [7], in test [8], in test [9] and in test [10] was more than 100 µM throughout.
Turning to `CC(C)Oc1cccc(N2C(Nc3ccccc3)=Nc3ccncc3S2(=O)=O)c1`, the TGI in test [1] was 84.8 µM; in [2] it was 28.8 µM; in test [3] it was 6.01 µM; in test [4] it was more than 100 µM; in test [5] it was 63.7 µM; in test [6], more than 100 µM. For the same compound, the TGI in [7] was more than 100 µM; in test [8], more than 100 µM; in test [9] it was more than 100 µM; in test [10], 50.4 µM.
As to `COc1cc2nc(-c3cccs3)nc(Nc3cccc(Cl)c3)c2cc1OC`, the TGI in test [1], in test [2], in test [3], in test [4], in [5] and in test [6] was more than 100 µM each time. For the same compound, the TGI in test [7], in [8], in test [9] and in test [10] was more than 100 µM each time.
On to `COc1cc(N(CCC#N)CCC#N)ccc1/C=N\NC(=O)c1ccc(C)cc1`, for which the TGI in test [1], in test [2], in test [3], in test [4], in [5] and in test [6] was more than 100 µM throughout. Also, the TGI in [7], in test [8], in test [9] and in [10] was more than 100 µM in each case.
